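Interpolation was linear, between the two tested concentrations surrounding the appropriate level; five concentrations were tested over 48 hours in 96-well plates. GI50: concentration for 50% inhibition of growth. TGI denotes the concentration required for complete inhibition of growth.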
Key:
Experiment in all cases: inhibition of tumour cell growth, NCI panel, 48 h
[1] = system: 786-0 renal
[2] = system: ACHN renal
[3] = system: CAKI-1 renal
[4] = system: KM12 colon
[5] = system: NCI-H23 lung
[6] = system: RXF 393 renal
[7] = system: SF-295 CNS
[8] = system: SR leukemia
[9] = system: UACC-62 melanoma

Row | SMILES | GI50 [1] [µM] | TGI [1] [µM] | GI50 [2] [µM] | TGI [2] [µM] | GI50 [3] [µM] | TGI [3] [µM] | GI50 [4] [µM] | TGI [4] [µM] | GI50 [5] [µM] | TGI [5] [µM] | GI50 [6] [µM] | TGI [6] [µM] | GI50 [7] [µM] | TGI [7] [µM] | GI50 [8] [µM] | TGI [8] [µM] | GI50 [9] [µM] | TGI [9] [µM]
1 | COC1=CC(c2ccc[nH]2)=N/C1=C\c1[nH]c(C)c(C(=O)CCC(=O)Oc2ccc3c(c2)CCC2C3CC[C@]3(C)C(=O)CC[C@@H]23)c1C (some centres not stated) | 6 | 39.1 | 5.82 | > 100 | 8.77 | > 100 | 5.6 | > 100 | 9.75 | > 100 | 11.7 | > 87.4 | 21.4 | 85.3 | 0.634 | > 100 | 3.71 | 17.9
2 | COCCNCC(O)Cn1c2ccc(Cl)cc2c2cc(Cl)ccc21 (configuration not stated) | 1.8 | 3.42 | 1.87 | 3.76 | 1.7 | 3.36 | 1.9 | 3.42 | 2.1 | 4.7 | – | – | 1.93 | 4.28 | 2.98 | 6.92 | – | –
3 | COC(=O)OCC1OC(N2C(=O)NC(=O)C(I)C2N=[N+]=[N-])CC1OC(=O)OC (configuration not stated) | – | > 100 | – | > 100 | – | > 100 | – | > 100 | – | > 100 | – | > 100 | – | > 100 | – | > 100 | – | > 100
4 | COc1ccc(-c2nc(-c3nc4ccc(F)cc4[nH]3)cc3c2[nH]c2ccccc23)cc1 | 3.33 | > 100 | 2.87 | > 100 | 3.87 | > 100 | 2.78 | 12.2 | 3.01 | 10.9 | 1.72 | 4.55 | – | – | 3.34 | > 100 | 1.86 | 4.25
5 | O=C1c2ccn(CCCCN3CCOCC3)c2C(=O)c2c1c(O)c1ccccc1c2O | 6.34 | 25.2 | 10.8 | 28.4 | 5.94 | 21 | 5.21 | 18.8 | 11.4 | 23.6 | 2.2 | 6.93 | 3.58 | 16.2 | 4.55 | 33.6 | – | –
6 | c1ccc2c(c1)O[As](O[As]1Oc3ccccc3O1)O2 | 3.66 | 15.4 | 6.47 | 21.4 | 2.56 | 8.54 | 7.79 | 20.6 | – | – | 1.64 | 13 | 6.48 | 22.9 | 1.61 | 7.39 | – | –
